Measured values taken from US4347254A, “Tricyclic cage compounds, their synthesis and use as antiviral agents” (Sumitomo Chemical Company, Limited, priority 1978, dated 1982).
Values joined by “and” are separate entries in the source; they are usually repeats but may differ in a detail not shown here. Identical values can stand only once. Like-named read-outs stand apart in the source and are kept apart here.

Assays:
[1] = Acute toxicity: mortality after subcutaneous injection; type: in vivo, male dd-strain mice; set-up: key to appearance of hyperactivity / clonic convulsion: ±: appearance of hyperactivity; +: appearance of clonic convulsion; conditions: mice
Method: Six male dd-strain mice, weighing 25±3 g, were used in each group. Test drugs were injected subcutaneously (0.2 ml/10 g).
Mortality at the 3rd day after subcutaneous injection:-
^(*1) Number of deaths/Number of animals used.

[2] = test system: catalepsy induced by haloperidol; assay: Effects on the catalepsy induced by haloperidol (anti-catalepsy activity); type: in vivo, male dd-strain mice; conditions: for Number of showing anti-catalepty activity/Number of total animal: 0.5 hour after test drug, haloperidol 7 mg/kg s.c., hydrochloride
Method: Pharmcol., 22, 546-547 (1970)" or "J. May et al., Psychopharmcol., 24, 296-307 (1972)".
Effects on the catalepsy induced by haloperidol:
Six male dd-strain mice, weighing 25±3 g, were used in each group. Test drugs were injected intraperitoneally or subcutaneously 3.5 hours after the injection of haloperidol (7 mg/kg, s.c.).
The catalepsy was measured at 0.5 hour after injection of test drugs according to the method of Wirth et al. with slight modification [cf. Wirth, R., Gosswald, R., Horlein, V., Risse, K. H. and Kreiskott, H. Archs int. Pharmacodyn., Ther., 115, 1-31 (1958)].

[3] = test system: Influenza A/PR/8/34 (HO,Nl) strain; assay: microbe, parasite or virus in culture; type: cell-based, Influenza A virus; conditions: for minimal effective concentration: Influenza A virus, PR/8, 72 h, 34° C., 3 days, read-out: MEC (minimum effective concentration); for Chemotherapeutic index (MCC/MEC): 4320 min
[4] = Cytotoxicity in host cells by microscopic examination and retardation of cell growth rate; type: cell-based; conditions: dog; MDCK cells; hydrochloride; read-out: MCC (minimum cytotoxic concentration)
Method: Virus (Influenza A/PR/8/34 (HO,Nl) strain) and cell culture (MDCK cells) were used in this study and were grown in Earle-based Eagle-MEM containing 2.5 mg/ml of NaHCO3 and 10% fetal calf serum. Maintenance medium was Eagle's MEM containing 2.5 mg/ml NaHCO3, 0.1% bovine serum albumin and 20 μg/ml Tnypsin.
After washing MDCK Cell monolayers with PBS(-), maintenance medium containing 10^3 TCID50 of virus the drug was added to each culture tube and these tubes were then incubated at 34° C. for 3 days.
Antiviral effects and cytotoxicities of the test compounds were tested against influenza virus by the tube dilution assay.
Cytotoxicity was determined by microscopic examination and retardation of cell growth rate of host cell, and represented by minimum cytotoxicic concentration (MCC, μg/ml).

[5] = test system: Influenza A/PR/8/34 (HO,Nl) strain; type: in vivo, Influenza A virus; ICR male mice; conditions: for LLS (lung lesion score): score 0-5, control 4.7; for efficacy compared with amantadine: as indicated in Table III
[6] = test system: central nervous system (CNS); conditions: known drug; cited from earlier work
[7] = 1000 mg/kg s.c., hydrochloride (29-1: not hydrochloride)
[8] = hydrochloride (29-1: not hydrochloride)

| Structure (SMILES) | Number of showing anti-catalepty activity/Number of total animal ([2]; 500 mg/kg s.c.) | minimal effective concentration ([3]; MDCK cells, hydrochloride) [µg/mL] | Chemotherapeutic index (MCC/MEC) ([3]; MDCK cells, hydrochloride) | MCC at 72 h [4] [µg/mL] | further results |
| --- | --- | --- | --- | --- | --- |
| N[C@@H]1[C@H]2CC[C@H]3[C@@H]1CO[C@H]3C2 (relative stereo) [Compound No. 12-4, 5-Oxa-endo-2-amino-isotwistane] | 0/6 | 50 | 2 | 100 | Mortality rate at the 3rd day after subcutaneous injection (Number of deaths/Number of animals used) ([1]; 2000 mg/kg s.c., hydrochloride): 0/6; appearance of hyperactivity / clonic convulsion ([1]; 2000 mg/kg s.c., hydrochloride): ± |
| N[C@H]1[C@H]2CC[C@H]3[C@@H]1CO[C@H]3C2 (relative stereo) [Compound No. 12-9, 5-Oxa-exo-2-amino-isotwistane] | – | 50 | 2 | 100 | – |
| CN[C@@H]1[C@H]2CC[C@H]3[C@@H]1CO[C@H]3C2 (relative stereo) [Compound No. 18-3, 5-Oxa-endo-2-N-methylamino-isotwistane] | 1/6 | 50 | > 4 | > 200 | appearance of hyperactivity / clonic convulsion ([1]; 1000 mg/kg s.c., hydrochloride): ±; Mortality rate at the 3rd day after subcutaneous injection (Number of deaths/Number of animals used) [1, 7]: 0/6 |
| NC[C@@H]1[C@H]2CC[C@H]3[C@@H]1CO[C@H]3C2 (relative stereo) [Compound No. 25-3, 5-Oxa-endo-2-aminomethyl-isotwistane] | 0/6 | 25 | 4 | 100 | Mortality rate at the 3rd day after subcutaneous injection (Number of deaths/Number of animals used) [1, 7]: 0/6 |
| NC[C@H]1[C@H]2CC[C@H]3[C@@H]1CO[C@H]3C2 (relative stereo) [Compound No. 67-1, exo-2-aminomethyl-5-oxa-isotwistane] | – | 25 | 4 | 100 | – |
| NC12CC3CC(CC(C3)C1)C2 [Amantadine, reference compound] | – | 12.5 | – | 12.5 | Mortality rate at the 3rd day after subcutaneous injection (Number of deaths/Number of animals used) ([1]; 300 mg/kg s.c., hydrochloride): 6/6; Number of showing anti-catalepty activity/Number of total animal ([2]; 50 mg/kg s.c.): 3/6 and 2/6; antagonism of the catalepsy (in words), amantadine ([2]; at 50 mg/kg): antagonizes the catalepsy at 50 mg/kg; LLS (lung lesion score) ([5]; hydrochloride): 4.3; Chemotherapeutic index (MCC/MEC) ([3]; mdck): 1; CNS-effects (in words), amantadine [6]: strong effects on a central nervous system (CNS) |
| NC12COC3CC(CCC31)C2 (stereo not drawn) [Compound No. 12-3, 5-Oxa-3-amino-isotwistane] | 2/6 | 50 | 2 | 100 | Mortality rate at the 3rd day after subcutaneous injection (Number of deaths/Number of animals used) ([1]; 705 mg/kg s.c., hydrochloride): 0/6; appearance of hyperactivity / clonic convulsion ([1]; 705 mg/kg s.c., hydrochloride): ±; LLS (lung lesion score) [5, 8]: 3.6; efficacy compared with amantadine [5]: comparable to that of amantadine |
| NCC1C2CCC3C(COC13)C2 (stereo not drawn) [Compound No. 12-10] | – | 25 | 4 | 100 | – |
| CNC12COC3CC(CCC31)C2 (stereo not drawn) [Compound No. 18-2, 5-Oxa-3-N-methylamino-isotwistane] | – | 50 | > 4 | > 200 | Mortality rate at the 3rd day after subcutaneous injection (Number of deaths/Number of animals used) ([1]; 500 mg/kg s.c., hydrochloride): 0/6; appearance of hyperactivity / clonic convulsion ([1]; 500 mg/kg s.c., hydrochloride): ±; Number of showing anti-catalepty activity/Number of total animal ([2]; 250 mg/kg s.c.): 3/6 |
| NCC12COC3CC(CCC31)C2 (stereo not drawn) [Compound No. 27-2, 5-Oxa-3-aminomethyl-isotwistane] | 1/6 | 25 | 8 | 200 | Mortality rate at the 3rd day after subcutaneous injection (Number of deaths/Number of animals used) ([1]; 1190 mg/kg s.c., hydrochloride): 0/6; appearance of hyperactivity / clonic convulsion ([1]; 1190 mg/kg s.c., hydrochloride): ±; times as safe as amantadine (by chemotherapeutic index) ([3]; compared with amantadine): 8 times |
| NCCCC12COC3CC(CCC31)C2 (stereo not drawn) [Compound No. 27-4, 5-Oxa-3-(ω-amino-n-propyl)-isotwistane] | – | 25 | 4 | 100 | Mortality rate at the 3rd day after subcutaneous injection (Number of deaths/Number of animals used) ([1]; 250 mg/kg s.c., hydrochloride): 1/6; Mortality rate at the 3rd day after subcutaneous injection (Number of deaths/Number of animals used) ([1]; 500 mg/kg s.c., hydrochloride): 6/6 |
| COC(=O)C12COC3CC(CC31)C2 (stereo not drawn) [Compound No. 29-1, 5-oxa-3-methoxycarbonyl-brendane] | – | – | – | – | Mortality rate at the 3rd day after subcutaneous injection (Number of deaths/Number of animals used) [1, 7]: 0/6; LLS (lung lesion score) [5, 8]: 4.3; efficacy compared with amantadine [5]: comparable to that of amantadine |
| CN(C)CC12COC3CC(CCC31)C2 (stereo not drawn) [Compound No. 41-5, 5-Oxa-3-N,N-dimethylaminomethyl-isotwistane] | – | 50 | 2 | 100 | – |
| CC(N)C12COC3CC(CCC31)C2 (stereo not drawn) [Compound No. 44-1, 5-oxa-3-(α-aminoethyl)-isotwistane] | – | 25 | 2 | 50 | appearance of hyperactivity / clonic convulsion ([1]; 1000 mg/kg s.c., hydrochloride): ±; Mortality rate at the 3rd day after subcutaneous injection (Number of deaths/Number of animals used) [1, 7]: 0/6; Number of showing anti-catalepty activity/Number of total animal ([2]; 250 mg/kg s.c.): 1/6 |
| NC1C2CC3COC1C3C2 (stereo not drawn) [Compound No. 44-3, 2-Amino-4-oxa-brendane] | – | 50 | 2 | 100 | – |
| NC1C2CCC3C(COC13)C2 (stereo not drawn) [Compound No. 44-4, 2-Amino-4-oxa-isotwistane] | 0/6 | 100 | 1 | 100 | Mortality rate at the 3rd day after subcutaneous injection (Number of deaths/Number of animals used) [1, 7]: 0/6 |
| NCC12CSC3CC(CC31)C2 (stereo not drawn) [Compound No. 49-1, 5-thia-3-aminomethyl-brendane] | – | 25 | 2 | 50 | Mortality rate at the 3rd day after subcutaneous injection (Number of deaths/Number of animals used) ([1]; 250 mg/kg s.c., hydrochloride): 0/6; appearance of hyperactivity / clonic convulsion ([1]; 250 mg/kg s.c., hydrochloride): +; Number of showing anti-catalepty activity/Number of total animal ([2]; 125 mg/kg s.c.): 1/6 |
| NCC12CSC3CC(CCC31)C2 (stereo not drawn) [Compound No. 53-1] | – | 12.5 | 2 | 25 | Mortality rate at the 3rd day after subcutaneous injection (Number of deaths/Number of animals used) ([1]; 500 mg/kg s.c., hydrochloride): 3/6 |
